Data published in patent US20150359810A1, “METHODS FOR TREATING EPSTEIN-BARR VIRUS (EBV) ASSOCIATED CANCERS USING ORAL FORMULATIONS OF 5-AZACYTIDINE” (Celgene Corporation, priority 2014, published 2015).
“Also recorded” adds a separate entry of the source.

Assays:
BLLF1 = assay: EBV gene expression in RAEL cells, QuantiGene Multiplex 2.0 assay; format: cell-based, Epstein-Barr Virus; conditions: 0.3 μM AZA once a day for 4 days, days 1 through 9
Method: (§1) Assay Procedure: The RAEL and Ramos Burkitt's lymphoma cell lines were treated with vehicle (water) or AZA once a day (qd) for the number of days indicated in FIG. 6 and FIG. 15. For the experiment described in FIG. 6, cells were collected on days 1 through 9 (singlicate sample per condition per time point); at each time point, an aliquot of cells was used to purify deoxyribonucleic acid (DNA) (DNeasy Blood & Tissue Kit; Qiagen; Valencia, Calif.) for EBV DNA (Z and R promoters) methylation analysis (FIG. 7; FIG. 8) at EpigenDx (Hopkinton, Mass.), while a second aliquot of cells was lysed in QuantiGene Lysis Buffer for gene expression analysis (FIG. 9 to FIG. 14) using the QuantiGene Multiplex 2.0 assay (Affymetrix; Santa Clara, Calif.). The pyrosequencing assay used at EpigenDx to assess the methylation status of cytosine-phosphate-guanine dinucleotides (CpGs) 1-3 of the EBV Z promoter (Li L, Su X, Choi G, Cao Y, Ambinder R, Tao Q. Methylation profiling of Epstein-Barr virus immediate-early gene promoters, BZLF1 (EBV gene encoding for the Zta transcription factor) and BRLF1 (EBV gene encoding for the Rta transcription factor) in tumors of epithelial, NK- and B-cell origins. BMC Cancer 2012 Mar. 29; 12:125) was ADS3981-FS1, while that for CpGs 16-20 of the EBV R promoter (Li, 2012) was ADS3984-FS2.
(§2) The RAEL EBV^+ Burkitt's lymphoma cell line was treated with vehicle or 0.3 μM AZA once a day for 4 days (FIG. 6). Cells were harvested on days 1 through 9 to assess the effects of AZA on EBV promoter (Zp and Rp) methylation, as well as EBV gene expression. […] Zp and Rp methylation remained low for the remainder of the experiment, even in the absence of continued AZA treatment (FIG. 7; FIG. 8). In parallel with the effects of AZA on EBV promoter methylation, AZA induced expression of EBV genes.

EBNA2 = assay: as above; format: cell-based, Epstein-Barr Virus; conditions: 0.3 μM AZA once a day for 4 days, days 1 through 9, listed as AZA
Method: as §1, §2

BHRF1 = assay: as above; format: cell-based, Epstein-Barr Virus; conditions: 0.3 μM AZA once a day for 4 days, days 1 through 9, listed as AZA
Method: as §1, §2

BRLF1 = assay: as above; format: cell-based, Epstein-Barr Virus; conditions: 0.3 μM AZA once a day for 4 days, days 1 through 9, listed as AZA
Method: as §1, §2

EBNA1 = assay: as above; format: cell-based, Epstein-Barr Virus; conditions: 0.3 μM AZA once a day for 4 days, days 1 through 9, listed as AZA
Method: as §1, §2

LMP1 = assay: as above; format: cell-based, Epstein-Barr Virus; conditions: 0.3 μM AZA once a day for 4 days, days 1 through 9, listed as AZA
Method: as §1, §2

DNA methylation in PBMCs = DNA methylation in PBMCs of patients by Infinium Methylation27/Methylation450 Array; format: in vivo, human; conditions: Arm C alone; for patients with DNA hypomethylation in PBMCs: Arm A with CBDCA
[1] = tested on: EBV proteins EBNA1, EBNA2, Zta, and LMP1 in Ramos cell line; assay: EBV protein expression by Western blotting in Ramos cell line; format: cell-based, Epstein-Barr virus; conditions: AZA once a day for 1 or 2 days, cells collected on day 6, listed as AZA
Method: as §1, with “ADS3984-FS2. […]” for “ADS3984-FS2.”

[2] = tested on: DNA methylation (LINE-1) in PBMC DNAs; assay: LINE-1 DNA methylation in PBMC DNAs of patients; format: in vivo, human; conditions: Arm C patients, 200 mg oral AZA alone; Days 1, 8, and 15 of 21-day cycle
Method: In one embodiment, PBMC DNA was used for assessing changes in DNA methylation, using assays such as LINE-1 methylation, %5 mdC mass spec, Infinium® Methylation27 Array, and Infinium® Methylation450 Array. In one study, DNA methylation (LINE-1) in PBMC DNAs from patients in clinical studies described in Example 1, dosed with 200 mg oral AZA alone or in combination with CDBCA or ABX, was measured on Days 1, 8, and 15 of 21-day cycle. […] In one study, %5 mdC in PBMC DNAs from patients in clinical studies described in Example 1, dosed with 200 mg oral AZA alone or in combination with CDBCA or ABX, was measured on Days 1, 8, and 15 of 21-day cycle. In one study, methylation levels were measured on Days 1, 8, and 15 of 21-day cycle using Infinium® Methylation27 Array (patients dosed with 200 mg oral AZA alone or in combination with CDBCA or ABX) and density profiles of average methylation levels were analyzed. […] In another study, methylation levels were measured using Infinium® Methylation450 Array (patients dosed with 300 mg oral AZA alone or in combination with CDBCA or ABX) and density profiles of average methylation levels were analyzed, as well as % change of hypermethylated loci (beta >0.7) upon treatment.

[3] = tested on: EBV Z promoter (CpGs 1-3); assay: EBV promoter methylation by pyrosequencing in RAEL cells (Z promoter); format: cell-based, Epstein-Barr Virus
Method: as §1, §2

Zta = conditions: RAEL cells; 72 hours; AZA 0.3 or 1.0 uM, ROMI 0.5, 1.0, or 2.0 nM, or combination
higher-risk MDS = conditions: Phase III study; administered subcutaneously; subjects with higher-risk MDS; cited from earlier work
[4] = tested on: EBV proteins EBNA1, EBNA2, Zta, and LMP1 in RAEL cell line; assay: EBV protein expression by Western blotting in RAEL cell line; format: cell-based, Epstein-Barr virus; conditions: cells collected on day 6
[5] = PK exposure of AZA in patients of the clinical study; format: in vivo; conditions: human, plasma; oral AZA 200 mg or 300 mg, alone or in combination; read-out: AUCinf of patients in whom decreases in DNA methylation were observed
[6] = tested on: EBV R promoter (CpGs 16-20); assay: EBV promoter methylation by pyrosequencing in RAEL cells (R promoter); format: cell-based, Epstein-Barr Virus
Method: as §1, §2

[7] = RAEL EBV+ Burkitt's lymphoma cell line, 0.3 μM AZA once a day for 4 days, harvested days 1 through 9, listed as AZA
[8] = RAEL, 0.3 μM AZA once a day for 4 days
[9] = RAEL, after 0.3 μM AZA once a day for 4 days, up to day 9

In the case of `Nc1ncn([C@@H]2O[C@H](CO)[C@@H](O)[C@H]2O)c(=O)n1` [5-azacytidine, 4-amino-1-β-D-ribofuranosyl-1,3,5-triazin-2(1H)-one], the “ribonucleic acid expression of BLLF1” value (BLLF1) is reported as “did not affect the expression of BLLF1 as much as other genes”, the “ribonucleic acid expression of EBNA2” value (EBNA2) is reported as “strongly induced expression” and the “ribonucleic acid expression of BHRF1” value (BHRF1) is reported as “strongly induced expression”. The “ribonucleic acid expression of BRLF1” value (BRLF1) was “strongly induced expression”, the “ribonucleic acid expression of EBNA1” value (EBNA1) was “strongly induced expression” and the “ribonucleic acid expression of LMP1” value (LMP1) was “strongly induced expression”. For the same compound, the “change in DNA methylation in PBMCs upon treatment (Infinium Methylation27 Array, density profiles of average methylation levels)” value (DNA methylation in PBMCs; 200 mg oral AZA, Arm A with CDBCA, Arm B with ABX, Days 1, 8, and 15 of 21-day cycle) was “decreases in hypermethylated loci (beta >0.7) were observed”, the “patients with DNA hypomethylation in PBMCs” value (DNA methylation in PBMCs; 200 mg oral AZA, Arm B with ABX) was 5/6 and the “patients with DNA hypomethylation in PBMCs” value (DNA methylation in PBMCs; 300 mg oral AZA) was 3/3. For the same compound, the “expression of the EBV proteins EBNA1, EBNA2, Zta, and LMP1” value [1] was “not in the EBV-negative (EBV−) Ramos”, the “DNA methylation (LINE-1) in PBMC DNAs” value [2] was “Decreases in LINE-1 methylation were observed for two patients” and the Zp methylation [3, 7] was “causes the demethylation; also recorded: precipitously decreased”. For the same compound, the “time to maximal hypomethylation of Zp” value [3, 8] was at most 4 days, the “Zp methylation for the remainder of the experiment, in the absence of continued AZA treatment” value [3, 9] was “remained low” and the “Zta expression (Zta band intensity with GAPDH as house-keeping protein)” value (Zta) was “slight increase in Zta expression”. For the same compound, the “survival and time to AML transformation or death” value (higher-risk MDS) was “significantly prolonged survival and time to AML transformation or death”, the “expression of the EBV proteins EBNA1, EBNA2, Zta, and LMP1” value ([4]; RAEL (EBV+) cell line, AZA once a day for 1 or 2 days, listed as AZA) was “induces expression of EBV proteins; also recorded: dose-dependently induced expression” and the “induction of EBV proteins, AZA for 2 days compared with AZA for 1 day” value ([4]; RAEL, Western blotting) was “greater induction of EBV proteins”. For the same compound, the AUC(0-inf) [5] was over 350 ng·h/mL, the Rp methylation [6, 7] was “causes the demethylation; also recorded: precipitously decreased” and the “time to maximal hypomethylation of Rp” value [6, 8] was at most 4 days. The “Rp methylation for the remainder of the experiment, in the absence of continued AZA treatment” value [6, 9] was “remained low”.
